Test results as given in patent publication US6656956B2, “Benzimidazole derivatives, processes for preparing them and their use as pharmaceutical compositions” (Boehringer Ingelheim Pharma KG, priority 2001, dated 2003).
Where a name gives a salt, the structure may show the parent alone.

What follows are compounds tested against T1, rh beta tryptase (Homo sapiens, UniProt Q15661) (assay: tryptase inhibition in vitro test (cleavage of N-p-tosyl-Gly-Pro-Lys-para-nitroaniline, p-nitroaniline measured at 405 nm)). Details: rh beta tryptase 0.91 U/ml, substrate 0.6 mM, Tris HCl buffer with calcium and heparin, pH 7.4, 37° C., 5 minutes incubation; read-out: Tryptase-inhibiting activity.
T1 construct: purchased Promega
Assay type: biochemical
Procedure: The compounds according to the invention are characterised by their tryptase-inhibiting activity. This ability to inhibit tryptase was investigated using the test described below.
The measurement is carried out in Tris HCl buffer (100 mM), which additionally contains calcium (5 mM) and heparin ([…]), at pH 7.4. The standard used is rh beta tryptase which may be obtained commercially from Promega, for example. The substrate used is N-p-tosyl-Gly-Pro-Lys-para-nitroaniline in a concentration of 0.6 mM. The substrate is digested with tryptase to form p-nitroaniline which can be measured at 405 nm. Usually, an incubation period of 5 minutes and an incubation temperature of 37° C. are chosen. The enzyme activity used is 0.91 U/ml. The measurements are carried out in an Autoanalyser (Cobas Bio) made by Hofmann LaRoche. The potential inhibitory substances are used in concentrations of 10 μM in the screening, the inhibition of the tryptase being given in percent. The IC50 is determined at over 70% inhibition (concentration at which 50% of the enzyme activity is inhibited). After 5 minutes' pre-incubation of the potential inhibitory substances, the substrate is added to start the reaction, the formation of p-nitroaniline being taken as a measurement of the enzyme activity after 5 minutes, after testing the linearity.

T1 sequence (Q15661 31-275): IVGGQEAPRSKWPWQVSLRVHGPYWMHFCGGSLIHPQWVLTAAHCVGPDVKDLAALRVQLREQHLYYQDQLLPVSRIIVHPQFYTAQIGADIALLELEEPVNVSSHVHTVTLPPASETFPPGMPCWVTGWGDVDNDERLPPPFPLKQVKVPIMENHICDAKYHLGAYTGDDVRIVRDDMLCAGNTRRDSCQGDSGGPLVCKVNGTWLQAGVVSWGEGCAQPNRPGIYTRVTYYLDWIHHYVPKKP

Compound	IC50 [nM]
Cn1c(CCc2ccc(C(=N)N)cc2)nc2cc(N(Cc3cccc4ccccc34)C(=O)Nc3cccc(Cl)c3)ccc21 [Example 74, N-{2-[2-(4-Amidinophenyl)-ethyl]-1-methyl-benzimidazol-5-yl}-N-[naphth-1-ylmethyl]-N′-(3-chloro)-phenyl, hydrochloride]	31 to 1000
CN(C(=O)CN1CCC(Nc2ccccn2)CC1)c1ccc2c(c1)nc(CCc1ccc(C(=N)N)cc1)n2C [Example 28, N-{2-[2-(4-Amidinophenyl)-ethyl]-1-methyl-benzimidazol-5-yl}-N-methyl-2-[4-(2-pyridylamino)-piperid-1-yl]-acetamide, dihydrochloride]	4 to 30
N-{2-[2-(4-Amidinophenyl)-ethyl]-1-methyl-benzimidazol-5- yl}-N-[ethanecarboxylic acid]-2-[4-(2-pyridylamino)-piperid- 1-yl]-acetamide, dihydrochloride [Example 54]	4 to 30
Cn1c(CCc2ccc(C(=N)N)cc2)nc2cc(N(Cc3ccccc3)C(=O)CN3CCC(Nc4ccccc4Cl)CC3)ccc21 [Example 58, N-{2-[2-(4-Amidinophenyl)-ethyl]-1-methyl-benzimidazol-5-yl}-N-benzyl-2-[4-(2-chlorophenylamino)-piperid-1-yl]-acetamide, dihydrochloride]	0.5 to 3
CCOC(=O)CCN(C(=O)CN1CCC(Nc2ccccn2)CC1)c1ccc2c(c1)nc(CCc1ccc(C(=N)N)cc1)n2C [Example 53, N-{2-[2-(4-Amidinophenyl)-ethyl]-1-methyl-benzimidazol-5-yl}-N-[ethyl ethanecarboxylate]-2-[4-(2-pyridylamino)-piperid-1-yl]-acetamide, dihydrochloride]	4 to 30
Cn1c(CCc2ccc(C(=N)N)cc2)nc2cc(N(Cc3ccncc3)C(=O)CN3CCC(Nc4ccccc4)CC3)ccc21 [Example 45, N-{2-[2-(4-Amidinophenyl)-ethyl]-1-methyl-benzimidazol-5-yl}-N-[4-pyridylmethyl]-2-(4-phenylamino-piperid-1-yl)-acetamide, dihydrochloride]	4 to 30
Cn1c(CCc2ccc(C(=N)N)cc2)nc2cc(N(Cc3cccc4ccccc34)C(=O)CN3CCC(N)CC3)ccc21 [Example 15, N-{2-[2-(4-Amidinophenyl)-ethyl]-1-methyl-benzimidazol-5-yl}-N-[naphth-1-ylmethyl]-2-[4-amino-piperid-1-yl]-acetamide, trihydrochloride]	4 to 30
N-{2-[2-(4-Amidinophenyl)-ethyl]-1-methyl-benzimidazol-5- yl}-N-[naphth-1-ylmethyl]-N′-[4-(2-naphthylmethylamino)]- urea, hydrochloride [Example 80]	31 to 1000
Cn1c(CCc2ccc(C(=N)N)cc2)nc2cc(N(Cc3cccc4ccccc34)C(=O)CN3CCC(Nc4ccncc4)CC3)ccc21 [Example 27, N-{2-[2-(4-Amidinophenyl)-ethyl]-1-methyl-benzimidazol-5-yl}-N-[naphth-1-ylmethyl]-2-[4-(4-pyridylamino)-piperid-1-yl]-acetamide, dihydrochloride]	4 to 30
CN(C(=O)CN1CCC(NCc2ccccn2)CC1)c1ccc2c(c1)nc(CCc1ccc(C(=N)N)cc1)n2C [Example 29, N-{2-[2-(4-Amidinophenyl)-ethyl]-1-methyl-benzimidazol-5-yl}-N-methyl-2-[4-(2-pyridylmethylamino)-piperid-1-yl]-acetamide, dihydrochloride]	31 to 1000
CN(c1ccccn1)C1CCN(CC(=O)N(Cc2cccc3ccccc23)c2ccc3c(c2)nc(CCc2ccc(C(=N)N)cc2)n3C)CC1 [Example 19, N-{2-[2-(4-Amidinophenyl)-ethyl]-1-methyl-benzimidazol-5-yl}-N-[naphth-1-ylmethyl]-2-[4-(2-pyridyl-N-methyl-amino)-piperid-1-yl]-acetamide, dihydrochloride]	4 to 30
Cn1c(CCc2ccc(C(=N)N)cc2)nc2cc(N(Cc3cccc4ccccc34)C(=O)CN3CCC(Nc4ccccc4Cl)CC3)ccc21 [Example 12, N-{2-[2-(4-Amidinophenyl)-ethyl]-1-methyl-benzimidazol-5-yl}-N-[naphth-1-ylmethyl]-2-[4-(2-chlorophenylamino)-piperid-1-yl]-acetamide, dihydrochloride]	0.5 to 3
COc1ccc(NC2CCN(CC(=O)N(Cc3cccc4ccccc34)c3ccc4c(c3)nc(CCc3ccc(C(=N)N)cc3)n4C)CC2)cc1 [Example 14, N-{2-[2-(4-Amidinophenyl)-ethyl]-1-methyl-benzimidazol-5-yl}-N-[naphth-1-ylmethyl]-2-[4-(4-methoxyphenylamino)-piperid-1-yl]-acetamide, dihydrochloride]	4 to 30
Cn1c(CCc2ccc(C(=N)N)cc2)nc2cc(N(Cc3cccc4ccccc34)C(=O)CN3CCC(C(=O)c4ccccc4)CC3)ccc21 [Example 24, N-{2-[2-(4-Amidinophenyl)-ethyl]-1-methyl-benzimidazol-5-yl}-N-[naphth-1-ylmethyl]-2-[4-(phenylcarbonyl)-piperid-1-yl]-acetamide, dihydrochloride]	0.5 to 3
CN(C(=O)CN1CCC(Nc2ccccc2C(C)(C)C)CC1)c1ccc2c(c1)nc(CCc1ccc(C(=N)N)cc1)n2C [Example 64, dihydrochloride]	4 to 30
CN(C)c1ccc(NC2CCN(CC(=O)N(Cc3cccc4ccccc34)c3ccc4c(c3)nc(CCc3ccc(C(=N)N)cc3)n4C)CC2)cc1 [Example 13, N-{2-[2-(4-Amidinophenyl)-ethyl]-1-methyl-benzimidazol-5-yl}-N-[naphth-1-ylmethyl]-2-[4-(4-dimethylaminophenyl-amino)-piperid-1-yl]-acetamide, trihydrochloride]	4 to 30
CN(CCC(=O)O)C1CCN(CC(=O)N(Cc2cccc3ccccc23)c2ccc3c(c2)nc(CCc2ccc(C(=N)N)cc2)n3C)CC1 [Example 25, N-{2-[2-(4-Amidinophenyl)-ethyl]-1-methyl-benzimidazol-5-yl}-N-[naphth-1-ylmethyl]-2-[4-(N-methyl-N-propionic acid)-piperid-1-yl]-acetamide, diacetate]	31 to 1000
CN(C(=O)CN1CCC(Nc2ccccc2OC(F)(F)F)CC1)c1ccc2c(c1)nc(CCc1ccc(C(=N)N)cc1)n2C [Example 39, N-{2-[2-(4-Amidinophenyl)-ethyl]-1-methyl-benzimidazol-5-yl}-N-methyl-2-[4-(2-trifluoromethoxyphenylamino)-piperid-1-yl]-acetamide, dihydrochloride]	4 to 30
CN(C(=O)CN1CCC(Nc2ccccc2C(F)(F)F)CC1)c1ccc2c(c1)nc(CCc1ccc(C(=N)N)cc1)n2C [Example 38, N-{2-[2-(4-Amidinophenyl)-ethyl]-1-methyl-benzimidazol-5-yl}-N-methyl-2-[4-(2-trifluoromethylphenylamino)-piperid-1-yl]-acetamide, dihydrochloride]	4 to 30
Cn1c(CCc2ccc(C(=N)N)cc2)nc2cc(N(Cc3cccc4ccccc34)C(=O)CN3CCC(Nc4ccc5ccccc5c4)CC3)ccc21 [Example 22, N-{2-[2-(4-Amidinophenyl)-ethyl]-1-methyl-benzimidazol-5-yl}-N-[naphth-1-ylmethyl]-2-[4-(2-naphthylamino)-piperid-1-yl]-acetamide, dihydrochloride]	0.5 to 3
Cn1c(CCc2ccc(C(=N)N)cc2)nc2cc(N(Cc3ccccc3)C(=O)CN3CCC(Nc4ccccn4)CC3)ccc21 [Example 57, N-{2-[2-(4-Amidinophenyl)-ethyl]-1-methyl-benzimidazol-5-yl}-N-[benzyl]-2-[4-(2-pyridylamino)-piperid-1-yl]-acetamide, dihydrochloride]	4 to 30
CN(C(=O)CN1CCC(Nc2ccc(Cl)cc2)CC1)c1ccc2c(c1)nc(CCc1ccc(C(=N)N)cc1)n2C [Example 105, N-{2-[2-(4-Amidinophenyl)-ethyl]-1-methyl-benzimidazol-5-yl}-N-methyl-2-[4-(4-chlorophenylamino)-piperid-1-yl]-acetamide, dihydrochloride]	0.5 to 3
Cn1c(CCc2ccc(C(=N)N)cc2)nc2cc(N(Cc3cccc4ccccc34)C(=O)CN3CCC(NC(=O)c4ccccc4)CC3)ccc21 [Example 8, N-{2-[2-(4-Amidinophenyl)-ethyl]-1-methyl-benzimidazol-5-yl}-N-[naphth-1-ylmethyl]-2-[4-benzoic acid amide-piperid-1-yl]-acetamide, dihydrochloride]	4 to 30
CN(C(=O)CN1CCC(Nc2ccccc2Br)CC1)c1ccc2c(c1)nc(CCc1ccc(C(=N)N)cc1)n2C [Example 35, N-{2-[2-(4-Amidinophenyl)-ethyl]-1-methyl-benzimidazol-5-yl}-N-methyl-2-[4-(2-bromophenylamino)-piperid-1-yl]-acetamide, dihydrochloride]	0.5 to 3
Cn1c(CCc2ccc(C(=N)N)cc2)nc2cc(NC(=O)CN3CCC(Nc4ccccn4)CC3)ccc21 [Example 52, N-{2-[2-(4-Amidinophenyl)-ethyl]-1-methyl-benzimidazol-5-yl}-2-[4-(2-pyridylamino)-piperid-1-yl]-acetamide, dihydrochloride]	31 to 1000
Cn1c(CCc2ccc(C(=N)N)cc2)nc2cc(N(Cc3cccc4ccccc34)C(=O)NC3CCC(Nc4ccccn4)CC3)ccc21 (centres unmarked) [Example 76, N-{2-[2-(4-Amidinophenyl)-ethyl]-1-methyl-benzimidazol-5-yl}-N-[naphth-1-ylmethyl]-N′-[4-(2-pyridyl)-amino-cyclohexyl)-urea, hydrochloride]	31 to 1000
